Data on 19 molecules can be found in patent US8574563B2 (Bristol-Myers Squibb Company, priority 2006, dated 2013).

The first assay has as its system HCV 1b-377-neo replicon cells. Put plainly: HCV replicon assay, HCV 1b-377-neo replicon cells (1b FRET). The format is cell-based, Hepatitis C virus genotype 1b. The conditions noted are these: HCV 1b-377-neo replicon cells; HCV 1b genotype; read-out: EC50 range against HCV 1b (Table 2, Range). The procedure, abridged:
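Compounds tested in HCV genotype 1b-377-neo replicon cells with a FRET read-out. Cells resistant to a reference NS5A inhibitor through a Y2065H NS5A mutation were run alongside wild-type cells.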
(In general: Replicon systems follow genome replication, usually without infectious particles.)
`CN(C)[C@@H](C(=O)N1CCC[C@H]1c1ncc(-c2ccc(-c3ccc(-c4cnc([C@@H]5CCCN5C(=O)C5CCN(C(=O)OC(C)(C)C)CC5)[nH]4)cc3)cc2)[nH]1)c1ccccc1` [Example 94-34, ′tert-butyl 4-(((2S)-2-(5-(4′-(2-((2S)-1-((2R)-2-(dimethylamino)-2-phenylacetyl)-2-pyrrolidinyl)-1H-imidazol-5-yl)-4-biphenylyl)-1H-imidazol-2-yl)-1-pyrrolidinyl)carbonyl)-1-piperidinecarboxylate]: the EC50 (as a rule, the concentration giving half of the maximal effect) fell in the range of 1 to 99 nM.
Still for that read-out and setting: under `COC(=O)N[C@@H](C(=O)N1CCC[C@H]1c1ncc(-c2ccc(-c3ccc(-c4cnc([C@@H]5CCCN5C(=O)Cc5ccccc5CN5CCCC5)[nH]4)cc3)cc2)[nH]1)c1ccccc1` [Example 84-86, methyl ((1R)-2-oxo-1-phenyl-2-((2S)-2-(5-(4′-(2-((2S)-1-((2-(1-pyrrolidinylmethyl)phenyl)acetyl)-2-pyrrolidinyl)-1H-imidazol-5-yl)-4-biphenylyl)-1H-imidazol-2-yl)-1-pyrrolidinyl)ethyl)carbamate] stands 0.001 to 0.999 nM.

The assay is the same for the next values; noted with them: Hepatitis C virus, HCV 1b-377-neo replicon cells; HCV 1b genotype; read-out: EC50 range against HCV 1b (Table 2, Range).
As for `O=C(Cc1ccccc1CN1CCCC1)N1CCC[C@H]1c1ncc(-c2ccc(-c3ccc(-c4cnc([C@@H]5CCCN5C(=O)[C@@H](c5ccccc5)N5CCCCC5)[nH]4)cc3)cc2)[nH]1` [Example 107-27, 1-((1R)-2-oxo-1-phenyl-2-((2S)-2-(5-(4′-(2-((2S)-1-((2-(1-pyrrolidinylmethyl)phenyl)acetyl)-2-pyrrolidinyl)-1H-imidazol-5-yl)-4-biphenylyl)-1H-imidazol-2-yl)-1-pyrrolidinyl)ethyl)piperidine], the 50% effective concentration (EC50) was 0.001 to 0.999 nM.
Same read-out and setting: to `COC(=O)N[C@@H](C(=O)N[C@@H](C)c1ncc(-c2ccc(-c3cnc(-c4cnc([C@@H]5CCCN5C(=O)[C@H](NC(=O)OC)c5ccccc5)[nH]4)cn3)cc2)[nH]1)c1ccccc1` [Example 152j-28, methyl ((1R)-2-((2S)-2-(5-(5-(4-(2-((1S)-1-(((2R)-2-((methoxycarbonyl)amino)-2-phenylacetyl)amino)ethyl)-1H-imidazol-5-yl)phenyl)-2-pyrazinyl)-1H-imidazol-2-yl)-1-pyrrolidinyl)-2-oxo-1-phenylethyl)carbamate] belongs 0.001 to 0.999 nM.
Same read-out and setting: to `COC(=O)N[C@@H](C)C(=O)N1C[C@H](O)C[C@H]1c1ncc(-c2ccc(-c3ccc(-c4cnc([C@@H]5C[C@@H](O)CN5C(=O)[C@H](C)NC(=O)OC)[nH]4)cc3)cc2)[nH]1` [JG-4] belongs 1 to 99 nM.
Still for that read-out and setting: to `CC(=O)N[C@H](C(=O)N1[C@@H]2C[C@@H]2C[C@H]1c1ncc(-c2ccc(-c3ccc(-c4cnc([C@@H]5C[C@H]6C[C@H]6N5C(=O)[C@@H](NC(C)=O)C(C)C)[nH]4)cc3)cc2)[nH]1)C(C)C` [Example M140, N-((1S)-1-(((1R,3S,5R)-3-(4-(4′-(2-((1R,3S,5R)-2-((2S)-2-acetamido-3-methylbutanoyl)-2-azabicyclo[3.1.0]hex-3-yl)-1H-imidazol-4-yl)-4-biphenylyl)-1H-imidazol-2-yl)-2-azabicyclo[3.1.0]hex-2-yl)carbonyl)-2-methylpropyl)acetamide] belongs 0.001 to 0.999 nM.
As to `COC(=O)N[C@@H](C(=O)N(C)[C@@H](C)c1ncc(-c2ccc(-c3ncc(-c4cnc([C@@H]5CCCN5C(=O)[C@H](NC(=O)OC)c5ccccc5)[nH]4)cn3)cc2)[nH]1)c1ccccc1` [Example 152j-21, methyl ((1R)-2-((2S)-2-(5-(2-(4-(2-((1S)-1-(((2R)-2-((methoxycarbonyl)amino)-2-phenylacetyl)(methyl)amino)ethyl)-1H-imidazol-5-yl)phenyl)-5-pyrimidinyl)-1H-imidazol-2-yl)-1-pyrrolidinyl)-2-oxo-1-phenylethyl)carbamate], the concentration for a half-maximal effect (EC50) was 0.001 to 0.999 nM.
The same measure, in the same setting: to `CN(C)[C@@H](C(=O)N1CCC[C@H]1c1ncc(-c2ccc(-c3ccc(-c4cnc([C@@H]5CCCN5C(=O)Cc5cnc[nH]5)[nH]4)cc3)cc2)[nH]1)c1ccccc1` [Example 94-50, (1R)-2-((2S)-2-(5-(4′-(2-((2S)-1-(1H-imidazol-5-ylacetyl)-2-pyrrolidinyl)-1H-imidazol-5-yl)-4-biphenylyl)-1H-imidazol-2-yl)-1-pyrrolidinyl)-N,N-dimethyl-2-oxo-1-phenylethanamine] belongs 0.001 to 0.999 nM.
Regarding `CCN(CC)[C@@H](C(=O)N1CCC[C@H]1c1ncc(-c2ccc(-c3ccc(-c4[nH]c([C@@H]5CCCN5C(=O)[C@@H](c5ccccc5)N(CC)CC)nc4C(F)(F)F)cc3)cc2)[nH]1)c1ccccc1` [Example J40], the EC50 lay in the range of 0.001 to 0.999 nM.
The same measure, in the same setting: under `COC(=O)N[C@@H](C)C(=O)N1[C@H](c2ncc(-c3ccc(-c4ccc(-c5cnc([C@@H]6C[C@@H]7C[C@@H]7N6C(=O)[C@H](C)NC(=O)OC)[nH]5)cc4)cc3)[nH]2)C[C@@H]2C[C@@H]21` [Example M130, methyl ((1S)-2-((1S,3S,5S)-3-(5-(4′-(2-((1S,3S,5S)-2-(N-(methoxycarbonyl)-L-alanyl)-2-azabicyclo[3.1.0]hex-3-yl)-1H-imidazol-5-yl)-4-biphenylyl)-1H-imidazol-2-yl)-2-azabicyclo[3.1.0]hex-2-yl)-1-methyl-2-oxoethyl)carbamate] stands 1 to 99 nM.
The same measure, in the same setting: to `Cn1cncc1C(=O)N[C@@H](C(=O)N1CCC[C@H]1c1ncc(-c2ccc(-c3ccc(-c4c[nH]c([C@@H]5CCCN5C(=O)[C@H]5CCCO5)n4)cc3)cc2)[nH]1)c1ccccc1` [Example 120-5, 1-methyl-N-((1R)-2-oxo-1-phenyl-2-((2S)-2-(5-(4′-(2-((2S)-1-((2R)-tetrahydro-2-furanylcarbonyl)-2-pyrrolidinyl)-1H-imidazol-4-yl)-4-biphenylyl)-1H-imidazol-2-yl)-1-pyrrolidinyl)ethyl)-1H-imidazole-5-carboxamide] belongs 1 to 99 nM; to `COC(=O)N[C@@H](C(=O)N1CCC[C@H]1c1ncc(-c2ccc(-c3ccc(-c4cnc([C@@H]5CCCN5C(=O)[C@H](NC(=O)OC)c5ccccc5Cl)[nH]4)cc3)cc2)[nH]1)c1ccccc1` [Example 107-41, methyl ((1R)-2-((2S)-2-(5-(4′-(2-((2S)-1-((2R)-2-(2-chlorophenyl)-2-((methoxy-carbonyl)amino)acetyl)-2-pyrrolidinyl)-1H-imidazol-5-yl)-4-biphenylyl)-1H-imidazol-2-yl)-1-pyrrolidinyl)-2-oxo-1-phenylethyl) carbamate], 0.001 to 0.999 nM.
The same measure, in the same setting: to `CCC(C)[C@@H](C(=O)N1CCC[C@H]1c1nc(-c2ccc(-c3ccc(-c4cnc([C@@H]5CCCN5C(=O)[C@H](C(C)CC)N(C)C(=O)OC(C)(C)C)[nH]4)cc3)cc2)c[nH]1)N(C)C(=O)OC(C)(C)C` (stereo partly drawn) [Example F29, tert-butyl ((1S)-1-(((2S)-2-(5-(4′-(2-((2S)-1-((2S)-2-((tert-butoxycarbonyl)(methyl)amino)-3-methylpentanoyl)-2-pyrrolidinyl)-1H-imidazol-4-yl)-4-biphenylyl)-1H-imidazol-2-yl)-1-pyrrolidinyl)carbonyl)-2-methylbutyl)methylcarbamate] belongs 1 to 99 nM; to `COC(=O)N[C@@H](C(=O)N1CCC[C@H]1c1ncc(-c2ccc(-c3ccc(-c4cnc([C@@H]5CCCN5C(=O)Cc5cccc(O)c5)[nH]4)cc3)cc2)[nH]1)c1ccccc1` [Example 84-14, methyl ((1R)-2-((2S)-2-(5-(4′-(2-((2S)-1-((3-hydroxyphenyl)acetyl)-2-pyrrolidinyl)-1H-imidazol-5-yl)-4-biphenylyl)-1H-imidazol-2-yl)-1-pyrrolidinyl)-2-oxo-1-phenylethyl)carbamate], 1 to 99 nM; to `CCN(CC)[C@H]1CC[C@@H](C(=O)N2CCC[C@H]2c2ncc(-c3ccc(-c4ccc(-c5cnc([C@@H]6CCCN6C(=O)[C@@H](NC(=O)OC)[C@@H](C)OC)[nH]5)cc4)cc3)[nH]2)CC1` [cj-72, methyl ((1S,2R)-1-(((2S)-2-(5-(4′-(2-((2S)-1-((cis-4-(diethylamino)cyclohexyl)carbonyl)-2-pyrrolidinyl)-1H-imidazol-5-yl)-4-biphenylyl)-1H-imidazol-2-yl)-1-pyrrolidinyl)carbonyl)-2-methoxypropyl)carbamate], 0.001 to 0.999 nM.
With `C=CC[C@H](NC(=O)OC)C(=O)N1CCC[C@H]1c1ncc(-c2ccc(-c3ccc(-c4cnc([C@@H]5CCCN5C(=O)[C@@H](c5ccccc5)N(CC)CC)[nH]4)cc3)cc2)[nH]1` [Example M60, methyl ((1S)-1-(((2S)-2-(5-(4′-(2-((2S)-1-((2R)-2-(diethylamino)-2-phenylacetyl)-2-pyrrolidinyl)-1H-imidazol-5-yl)-4-biphenylyl)-1H-imidazol-2-yl)-1-pyrrolidinyl)carbonyl)-3-buten-1-yl)carbamate], the 50% effective concentration (EC50) is 1 to 99 nM.
The same measure, in the same setting: under `O=C(C(c1ccccc1)N1CCNCC1)N1CCC[C@H]1c1ncc(-c2ccc(-c3ccc(-c4c[nH]c([C@@H]5CCCN5C(=O)[C@H]5CCCO5)n4)cc3)cc2)[nH]1` (stereo partly drawn) [Example 103-7, 1-(2-oxo-1-phenyl-2-((2S)-2-(5-(4′-(2-((2S)-1-((2R)-tetrahydro-2-furanylcarbonyl)-2-pyrrolidinyl)-1H-imidazol-4-yl)-4-biphenylyl)-1H-imidazol-2-yl)-1-pyrrolidinyl)ethyl)piperazine] stands 0.001 to 0.999 nM; under `COC(=O)N[C@@H](C(=O)N1CCC[C@H]1c1ncc(-c2ccc(-c3ccc(-c4cnc([C@@H]5CCCN5C(=O)C(c5ccccn5)N(C)C)[nH]4)cc3)cc2)[nH]1)c1ccccc1` (stereo partly drawn) [Example 84-61, methyl ((1R)-2-((2S)-2-(5-(4′-(2-((2S)-1-((dimethylamino)(2-pyridinyl)acetyl)-2-pyrrolidinyl)-1H-imidazol-5-yl)-4-biphenylyl)-1H-imidazol-2-yl)-1-pyrrolidinyl)-2-oxo-1-phenylethyl)carbamate], 0.001 to 0.999 nM.
The same measure, in the same setting: to `COC(=O)N[C@@H](CC(=O)N1CCC[C@H]1c1ncc(-c2ccc(-c3ccc(-c4cnc([C@@H]5CCCN5C(=O)C[C@@H](Cc5ccccc5)NC(=O)OC)[nH]4)cc3)cc2)[nH]1)Cc1ccccc1` [cj-143, dimethyl (4,4′-biphenyldiylbis(1H-imidazole-5,2-diyl(2S)-2,1-pyrrolidinediyl((2R)-4-oxo-1-phenyl-4,2-butanediyl)))biscarbamate] belongs 1000 to 10000 nM.
